From paper PMC3545233 (Scientific Reports, 2013)
Read-outs that look alike come from different tables or passages of the source.

Columns and labels:
[1] = target: recombinant hAChE (Homo sapiens, UniProt P22303); assay: Time-course and dilution experiments of AChE inhibition; type: biochemical
[2] = target: T1, recombinant agAP-AChE (Anopheles gambiae, UniProt Q869C3); assay: as above; type: biochemical, Anopheles gambiae sensu stricto; conditions: for inhibition at 50 µM: read-out: inhibition of the enzyme activity, agAP-AChE, 50 μM NEM
T1 sequence (Q869C3 39-737): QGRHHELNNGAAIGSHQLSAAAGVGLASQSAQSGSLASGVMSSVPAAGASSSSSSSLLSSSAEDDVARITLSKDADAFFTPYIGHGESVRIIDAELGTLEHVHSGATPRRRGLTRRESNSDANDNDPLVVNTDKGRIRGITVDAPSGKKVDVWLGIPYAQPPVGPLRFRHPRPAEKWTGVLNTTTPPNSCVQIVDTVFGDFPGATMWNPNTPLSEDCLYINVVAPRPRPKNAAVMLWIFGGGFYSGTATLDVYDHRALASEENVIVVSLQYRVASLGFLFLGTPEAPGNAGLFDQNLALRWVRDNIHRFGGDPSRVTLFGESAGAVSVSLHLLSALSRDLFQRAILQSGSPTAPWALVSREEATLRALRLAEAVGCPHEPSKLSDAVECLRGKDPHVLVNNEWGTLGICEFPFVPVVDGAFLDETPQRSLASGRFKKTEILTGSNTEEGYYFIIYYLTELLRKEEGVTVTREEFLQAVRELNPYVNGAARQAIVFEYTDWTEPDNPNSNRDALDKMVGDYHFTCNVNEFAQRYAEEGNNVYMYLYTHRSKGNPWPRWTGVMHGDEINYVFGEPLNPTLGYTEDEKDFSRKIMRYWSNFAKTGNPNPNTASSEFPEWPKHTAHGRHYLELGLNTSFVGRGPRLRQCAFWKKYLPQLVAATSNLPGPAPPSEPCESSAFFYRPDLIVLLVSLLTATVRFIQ

[3] = target: T1, recombinant agAP-AChE; assay: biochemical; design: species or system Anopheles gambiae sensu stricto
[4] = target: T1, recombinant agAP-AChE; type: biochemical, Anopheles gambiae sensu stricto; conditions: ≤15 min, paraoxon 333–2000 nM

recombinant hAChE, sequence (P22303 32-614): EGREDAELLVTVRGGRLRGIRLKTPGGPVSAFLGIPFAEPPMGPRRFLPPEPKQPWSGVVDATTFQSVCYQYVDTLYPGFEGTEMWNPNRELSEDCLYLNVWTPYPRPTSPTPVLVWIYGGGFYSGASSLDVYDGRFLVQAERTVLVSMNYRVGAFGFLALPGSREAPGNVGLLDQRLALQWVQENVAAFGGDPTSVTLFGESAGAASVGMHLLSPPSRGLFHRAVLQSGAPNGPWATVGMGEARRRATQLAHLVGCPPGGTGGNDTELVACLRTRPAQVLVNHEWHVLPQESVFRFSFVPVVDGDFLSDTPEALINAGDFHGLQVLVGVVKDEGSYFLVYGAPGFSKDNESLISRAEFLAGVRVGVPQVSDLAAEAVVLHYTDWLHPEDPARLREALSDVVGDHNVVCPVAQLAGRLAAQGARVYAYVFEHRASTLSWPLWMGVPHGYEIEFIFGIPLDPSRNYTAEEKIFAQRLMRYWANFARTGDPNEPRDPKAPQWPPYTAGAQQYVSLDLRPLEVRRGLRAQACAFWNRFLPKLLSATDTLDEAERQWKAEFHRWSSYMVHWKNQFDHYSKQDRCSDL

SMILES | irreversible inhibition (time-course and dilution experiments) ([2]; agAP-AChE) | irreversible inhibition (time-course and dilution experiments) [1] | Ki [3] [µM] | other results
CCN1C(=O)CCC1=O [1-ethylpyrrolidine-2,5-dione, reference compound] | – | – | – | irreversible or reversible inhibition ([1]; inhibitor concentrations up to 10 mM, data not shown): did not irreversibly or reversibly inhibit; irreversible or reversible inhibition ([2]; agAP-AChE, inhibitor concentrations up to 10 mM, data not shown): did not irreversibly or reversibly inhibit
CCN1C(=O)C=CC1=O [NEM, N-ethylmaleimide, reference compound] | inability of NEM to irreversibly inhibit agAP-AChE | – | – | inhibition at 50 µM ([2]; 30 minutes): 40 ± 1%; inhibition at 50 µM ([2]; immediately): 36 ± 2%
O=C1C=CC(=O)N1CCCCCCCCCCCCCCCCCCCC[n+]1ccccc1.[Br-] [PM20, 1-(20-(2,5-Dioxo-2,5-dihydro-1H-pyrrol-1-yl)eicosyl)pyridinium bromide] | irreversibly inhibited agAP-AChE | not hAChE | 0.4 | decrease of the enzyme activity ([2]; agAP-AChE, combination of 50 μM NEM and 6.7 nM PM20 for 30 minutes): 94 ± 3%; inhibition at 0.0067 µM ([2]; read-out: enzyme activity inhibited, agAP-AChE, incubated with 50 μM NEM, then treated with 6.7 nM PM20 for 30 minutes): 96 ± 4%; kinact/KI fold higher than that of paraoxon [4]: 239 fold
O=C([O-])C(F)(F)F.O=C1CCC(=O)N1CCCCCCCCCCCCCCCCCCCC[n+]1ccccc1 [PMS20, 1-(20-(2,5-Dioxopyrrolidin-1-yl)eicosyl)pyridin-1-ium 2,2,2-trifluoroacetate] | irreversibly inhibited neither | irreversibly inhibited neither | 0.42 | –
Cl.O=C1C=CC(=O)N1CCCCCCCCCCCCCCCCCCN1CCCCC1 [PY18, 1-(18-(Piperidin-1-yl)octadecyl)-1H-pyrrole-2,5-dione hydrochloride] | irreversibly inhibited agAP-AChE | not hAChE | – | –
Cl.O=C1CCC(=O)N1CCCCCCCCCCCCCCCCCCN1CCCCC1 [PYS18, 1-(18-(Piperidin-1-yl)octadecyl)pyrrolidine-2,5-dione hydrochloride] | irreversibly inhibited neither | irreversibly inhibited neither | 26.2 | –
CCOP(=O)(OCC)Oc1ccc([N+](=O)[O-])cc1 [Paraoxon, paraoxon, reference compound] | irreversibly inhibited both enzymes | irreversibly inhibited both enzymes | – | –
